Assay results reported in patent publication US11484032B2, “Compositions for inhibition of insect sensing” (Vanderbilt University, priority 2011, dated 2022).
Like-named read-outs stand apart in the source and are kept apart here.

Key:
[1] = system: An. gambiae early 4th instar larvae; test: Larval mosquito movement assay (Daniovision-Ethovision); format: in vivo, Anopheles gambiae; settings: compared with DMSO controls or VUAA1
Description: Next, the agonist activity of the VUAA compound class was tested to establish the involvement of AgORs in mediating larval ortho and klinokinesis in response to a series of semiochemicals using larval-stage An. gambiae mosquitoes. Mosquito larvae are aquatic, thus compounds can be delivered to individual early 4th instar larvae regardless of volatility. The assay currently utilizes 6-well plates and the Daniovision-Ethovision platform (Noldus Inc.) to simultaneously record and analyze 6 larvae, thereby providing modest rates of throughput and a high degree of reproducibility. In these assays, larval movements are automatically quantified over 5-minute period and control larvae consistently move the same number of times in the presence or absence of 0.1% DMSO (p=0.80, n=31) (FIGS. 42-43). Furthermore, the effects of the widely-used synthetic insect repellent N, N-diethyl-meta-toluamide (DEET) was tested and DEET was also observed to increase larval movements at and above a threshold concentration of 5×10^−4M (p=0.013, n=27) (FIGS. 42-43).

AgOrco+AgOR65 = biological target: T1, AgOrco+AgOR65 (Anopheles gambiae, UniProt Q7QCC7); test: Ca2+ imaging, HEK cells expressing AgOrco+AgOR65; format: cell-based
T1 construct: expressed in transfected cells
T1 sequence (Q7QCC7 1-478): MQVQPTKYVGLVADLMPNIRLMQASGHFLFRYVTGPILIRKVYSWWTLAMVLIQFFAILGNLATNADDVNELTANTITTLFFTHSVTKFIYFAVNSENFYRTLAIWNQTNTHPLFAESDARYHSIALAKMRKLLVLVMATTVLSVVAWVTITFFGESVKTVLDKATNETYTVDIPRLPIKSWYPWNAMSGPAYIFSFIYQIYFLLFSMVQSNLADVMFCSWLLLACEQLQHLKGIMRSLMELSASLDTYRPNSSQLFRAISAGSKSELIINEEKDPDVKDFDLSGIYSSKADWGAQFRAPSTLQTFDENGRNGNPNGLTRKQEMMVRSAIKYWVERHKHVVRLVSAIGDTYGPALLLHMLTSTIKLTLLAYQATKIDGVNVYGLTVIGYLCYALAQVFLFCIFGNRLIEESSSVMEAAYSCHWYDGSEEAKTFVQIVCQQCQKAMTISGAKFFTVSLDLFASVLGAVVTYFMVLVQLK
Excerpt: (§1) For transient transfections, ORs were cloned into pCl (Promega) and transfected into Flp-In™ T-REx™293 cell lines (Invitrogen) with Fu GENE6 (Roche). For the creation of stable cell lines, a cell culture expression vector capable of expressing Orco in conjunction with a conventional OR, pcDNA5/FRT/TO (Invitrogen) was modified to create two individual expression cassettes each under the control of a separate CMV/Tet02 promoter and a BGH poly-adenylation signal. Cells (as above) were transfected with the modified pcDNA5 plasmid along with POG44 (a Flp recombinase expression plasmid) to facilitate site-specific recombination. Stable cell lines were selected using Hygromycin B (Invitrogen). Cells were maintained in DMEM (Invitrogen) supplemented with 10% Tetracycline-free FBS (HyClone) and 15 ng/ml Blasticidin. For fluorometric Ca2+ measurements, stable lines expressing ORs of interest were seeded at 20,000 cells/well in black wall, poly-lysine coated 384-well cell culture plates (Greiner) and treated with […] tetracycline (Sigma) overnight to induce OR expression. Cells were dye-loaded with 1.8 uM Fluo-4 AM (Molecular Probes), 2.5 mM Probenecid (Molecular Probes) in assay buffer (20 mM HEPES, IX HBSS) for 45 minutes at 37° C. in 5% CO2 prior to each assay. Ca^2+ mobilization was assayed in an FDSS6000 (Hamamatsu). Baseline readings were taken for 20 s before automated addition of compound previously diluted in DMSO and assay buffer. Ratios were described as Maximum/Minimum response and each response was normalized to the maximum responder.
For VUAA0, a single methyl from the para position of the aniline ring (compound VUAA0, FIG. 44) in the VUAA1 structure was removed. […] In VUAA0.5, unsaturation was introduced at the para position of the aniline ring (VUAA0.5, FIG. 44). […] In VUAA2, the ethyl group of the aniline ring in VUAA1 was replaced with an isopropyl group (VUAA2, FIG. 44).

AgORco+AgOR10 = biological target: T2, AgORco+AgOR10 (Anopheles gambiae, UniProt Q7QCC7); test: Fluo-4 Ca2+ imaging, HEK293 cells expressing Orco+AgOR10; format: cell-based; parameters: Orco 10 + Orco Angatonist % Reduction / Orco 10 + Orco Agonist % of control: concentration or dose not given beside the values; settings: 10 + Orco; for Orco 10 + Orco Agonist, compared with VUAA1: qualitative, relative to VUAA1
T2 construct: expressed in transfected cells
T2 sequence (Q7QCC7 1-478): T1 sequence (Q7QCC7 1-478)
Excerpt: as §1
As part of an ongoing, cell based calcium imaging screen for novel small-molecule modulators of AgORs that might disrupt olfactory-driven mosquito behaviors (Rinker et al manuscript in preparation), the inventors identified a number of compounds that activated AgOR10+AgORco-expressing human embryonic kidney (HEK293) cells. One of these compounds, (FIG. 3 A) denoted here as VUAA1, elicited activity consistent with allosteric agonism and was pursued for its novel properties. The identity of VUAA1 was verified using high-resolution mass spectrometry (HRMS) as well as ^1H and ^13C NMR. […] As AgORco was the common element among these functional responses, the inventors postulated that VUAA1 was a potential AgORco agonist.

Orco (AgORco) = biological target: T3, Orco (AgORco) (Anopheles gambiae, UniProt Q7QCC7); test: Fluo-4 Ca2+ imaging, HEK293 cells expressing Orco alone; format: cell-based; settings: for Emax: HEK293, read-out: Orco Agonist % value Of VUAA1; for EC50: read-out: Orco Agonist EC50
T3 construct: expressed in transfected cells
T3 sequence (Q7QCC7 1-478): T1 sequence (Q7QCC7 1-478)
Excerpt: as §1

AgORco+AgOR48 = biological target: T4, AgORco+AgOR48 (Anopheles gambiae, UniProt Q7QCC7); test: Ca2+ imaging, HEK cells expressing AgORco+AgOR48; format: cell-based; settings: for EC50: read-out: Orco + 48 Agonist EC50; for Orco + 48 Agonist % value Of VUAA1: relative to VUAA1; for Orco + 48 Agonist EC50 (relative to VUAA1): stated in words relative to VUAA1
T4 construct: expressed in transfected cells
T4 sequence (Q7QCC7 1-478): T1 sequence (Q7QCC7 1-478)
Excerpt: as §1
The ability of VUAA1 and its analogs to agonize representative ORco proteins from dipteran (Anopheles gambiae, AgORco), lepidopteran (Heliothis virescens, HvORco) and hymenopteran (Harpegnathos saltator, HsORco) orders was tested. […] Furthermore, the hierarchy of VUAA series potency was the same, irrespective of whether AgORco was co-expressed with AgOR65 or AgOR48 tuning ORs (FIG. 45). Without wishing to be bound by a particular theory, odorant ligands are thought to activate the complex via interaction with the tuning ORx and thereby affect ORco/ORx channel properties. […] These findings indicate VUAA-class OR co-modulators are viable compounds for further development as broad-spectrum insect control strategies, and VUAA4 can provide an advance in the pharmacological profile of VUAA-based compounds.

[2] = heteromeric OR channels AgOrco+AgOR65, read-out: EC50
[3] = Orco + 65, read-out: Orco + 65 Agonist EC50

Structure (SMILES): C=Cc1ccc(NC(=O)CSc2nnc(-c3cccnc3)n2CC)cc1 [VUAA0.5, 2-((4-ethyl-5-(pyridin-3-yl)-4H-1,2,4-triazol-3-yl)thio)-N-(4-vinylphenyl)acetamide]
- larval behavioral (movement) response [1]: comparable to DMSO controls
- EC50 (AgOrco+AgOR65; [2]): 110 µM

Structure (SMILES): CCc1ccc(NC(=O)CSc2nnc(-c3cccnc3)n2CC)cc1 [drawing 373]
- Orco 10 + Orco Agonist % of control (AgORco+AgOR10; agonist mode): 101.8%
- Emax (Orco (AgORco)): 100%
- EC50 (AgORco+AgOR48; Orco + 48): 14 µM
- Orco + 48 Agonist % value Of VUAA1 (AgORco+AgOR48; Orco + 48): 100%
- EC50 (AgOrco+AgOR65; [3]): 47 µM
- Orco + 65 Agonist % value Of VUAA1 (AgOrco+AgOR65; Orco + 65, relative to VUAA1): 100%

Structure (SMILES): CCn1c(SCC(=O)Nc2ccc(C)cc2)nnc1-c1cccnc1 [drawing 372]
- EC50 (Orco (AgORco); Orco alone): 262 µM
- EC50 (AgORco+AgOR48; Orco + 48): 996 µM
- EC50 (AgOrco+AgOR65; [3]): 335 µM

Structure (SMILES): CCn1c(SCC(=O)Nc2ccc(C(C)C)cc2)nnc1-c1ccncc1
- Emax (Orco (AgORco)): 136%
- EC50 (Orco (AgORco); Orco alone): 7.4 µM
- EC50 (AgORco+AgOR48; Orco + 48): 3.5 µM
- Orco + 48 Agonist % value Of VUAA1 (AgORco+AgOR48; Orco + 48): 112%
- EC50 (AgOrco+AgOR65; [3]): 8.2 µM

Structure (SMILES): CCn1c(SCC(=O)Nc2ccc(C)cc2)nnc1-c1cccnc1 [VUAA0, 2-((4-ethyl-5-(pyridin-3-yl)-4H-1,2,4-triazol-3-yl)thio)-N-(p-tolyl)acetamide]
- larval behavioral (movement) response [1]: lower
- EC50 (AgOrco+AgOR65; [2]): 3400 µM

Structure (SMILES): CCn1c(SCC(=O)Nc2ccc(C(C)C)cc2)nnc1-c1cncs1
- EC50 (AgORco+AgOR48; Orco + 48, agonist): 16.8 µM

Structure (SMILES): CCc1ccc(NC(=O)CSc2nnc(-c3ccncc3)n2C2CC2)cc1
- EC50 (AgORco+AgOR48; Orco + 48, agonist): 13 µM

Structure (SMILES): CCn1c(SCC(=O)Nc2ccc(C(C)C)cc2)nnc1-c1cc[nH]n1
- Orco Agonist % value Of VUAA1 (Orco (AgORco); Orco alone, agonist, relative to VUAA1): <VUAA1
- Orco Agonist EC50 (relative to VUAA1) (Orco (AgORco); Orco alone, agonist, stated in words relative to VUAA1): <VUAA1

Structure (SMILES): CCn1c(SCC(=O)N2CCc3cc(Br)ccc32)nnc1-c1cccnc1
- Orco 10 + Orco Agonist, compared with VUAA1 (AgORco+AgOR10; agonist mode): >VUAA1
- Orco 10 + Orco Angatonist % Reduction (AgORco+AgOR10; antagonist mode): 59%
- Emax (Orco (AgORco)): 59%
- EC50 (Orco (AgORco); Orco alone): 55 µM

Structure (SMILES): C=Cc1ccc(NC(=O)CSc2nnc(-c3cccnc3)n2CC)cc1 [drawing 376]
- Orco 10 + Orco Agonist, compared with VUAA1 (AgORco+AgOR10; agonist mode): <VUAA1
- Emax (Orco (AgORco)): 57%
- EC50 (Orco (AgORco); Orco alone): 102 µM
- EC50 (AgORco+AgOR48; Orco + 48): 37.4 µM
- Orco + 48 Agonist % value Of VUAA1 (AgORco+AgOR48; Orco + 48): 77%

Structure (SMILES): CCn1c(SCCC(=O)Nc2ccc(C(C)C)cc2)nnc1-c1cccnc1
- EC50 (AgORco+AgOR48; Orco + 48): 2.2 µM

Structure (SMILES): CCCc1ccc(NC(=O)CSc2nnc(-c3ccncc3)n2C2CC2)cc1
- Orco + 48 Agonist % value Of VUAA1 (AgORco+AgOR48; Orco + 48, agonist): <VUAA1
- Orco + 48 Agonist EC50 (relative to VUAA1) (AgORco+AgOR48; Orco + 48, agonist): <VUAA1

Structure (SMILES): C=Cc1ccc(NC(=O)CSc2nnc(-c3ccncc3)n2C2CC2)cc1
- Orco + 48 Agonist % value Of VUAA1 (AgORco+AgOR48; Orco + 48, agonist): <VUAA1
- Orco + 48 Agonist EC50 (relative to VUAA1) (AgORco+AgOR48; Orco + 48, agonist): <VUAA1

Structure (SMILES): CCCc1ccc(NC(=O)CSc2nnc(-c3ccncc3)n2CC)cc1
- Orco + 48 Agonist EC50 (given only relative to VUAA1) (AgORco+AgOR48; Orco + 48, comparison with VUAA1 in words): <VUAA1
- Orco + 48 Agonist % value Of VUAA1 (AgORco+AgOR48; Orco + 48): <VUAA1
